In brackets after ≈: the same amount, converted by molar mass. Read-outs that look alike come from different tables or passages of the source.
Tests used:
[1] = water, cited from earlier work
[2] = Margin of exposure versus NOEL (estimated total daily dose to a child in a swimming pool); details: for Margin of Exposure vs NOEL: agricultural fungicides, Table B; for Margin of Exposure vs NOEL (Target > 100): herbicides, Table A, ratio of NOEL to estimated daily dose, 10 ppm in pool water, child 22 kg, 3 hours per day
Protocol: The herbicide preferably has a margin of exposure versus no observed effect level (“NOEL”) value of greater than 10, more preferably greater than 50, especially greater than 80, and more especially greater than 99. The margin of exposure versus NOEL is determined by estimating the total daily dose of the herbicide to a child in a swimming pool and determining the ratio of the NOEL to this. The total daily exposure may be estimated as follows. Oral exposure is estimated by assuming that the swimmer is in the water 3 hours per day, and that the swimmer ingests 50 milliliters of pool water per hour of swimming. It is also assumed that the herbicide will be present in the pool water at a concentration of 10 parts per million, equivalent to 10 milligrams per liter of pool water. The daily oral exposure is therefore estimated as the product of the swimming duration, the ingestion rate, and the concentration in the pool water. Dermal exposure is estimated by assuming the swimmer is in the water 3 hours per day, that the total body surface area, 8800 square centimeters, is immersed in the water, and that the herbicide permeates the skin at a rate, expressed in centimeters per hour, predicted by a model for skin permeation based on chemical structure, the Skinperm model, developed by W. F. ten Berge. A short description of the Skinperm model, can be accessed at: http://home.wxs.nl/˜wtberge/, which is incorporated herein by reference. The daily dermal exposure is then estimated as the product of the permeation rate, the concentration of the herbicide in the pool water (expressed in milligrams per cubic centimeter), the swimming duration, and the total body surface area. The total daily exposure is estimated as the sum of the daily oral and daily dermal exposure. The daily dose, expressed in milligrams per kilogram bodyweight per day, is then estimated as the total daily exposure divided by an assumed body weight of 22 kilograms.

[3] = agricultural fungicides, Table B
[4] = herbicides, Table A; 10 ppm in pool water, child 22 kg
Protocol: The margin of exposure versus NOEL is determined by estimating the total daily dose of the herbicide to a child in a swimming pool and determining the ratio of the NOEL to this. The total daily exposure may be estimated as follows. Oral exposure is estimated by assuming that the swimmer is in the water 3 hours per day, and that the swimmer ingests 50 milliliters of pool water per hour of swimming. It is also assumed that the herbicide will be present in the pool water at a concentration of 10 parts per million, equivalent to 10 milligrams per liter of pool water. The daily oral exposure is therefore estimated as the product of the swimming duration, the ingestion rate, and the concentration in the pool water. Dermal exposure is estimated by assuming the swimmer is in the water 3 hours per day, that the total body surface area, 8800 square centimeters, is immersed in the water, and that the herbicide permeates the skin at a rate, expressed in centimeters per hour, predicted by a model for skin permeation based on chemical structure, the Skinperm model, developed by W. F. ten Berge. A short description of the Skinperm model, can be accessed at: http://home.wxs.nl/˜wtberge/, which is incorporated herein by reference. The daily dermal exposure is then estimated as the product of the permeation rate, the concentration of the herbicide in the pool water (expressed in milligrams per cubic centimeter), the swimming duration, and the total body surface area. The total daily exposure is estimated as the sum of the daily oral and daily dermal exposure. The daily dose, expressed in milligrams per kilogram bodyweight per day, is then estimated as the total daily exposure divided by an assumed body weight of 22 kilograms.
The margin of exposure versus RfD is determined by estimating the total daily dose of the herbicide to a child in a swimming pool, as described above, and determining the ratio of the RfD to this (i.e. margin of exposure/RfD).

mustard algae [5] = assay: Remedial laboratory study on algae, change in turbidity; details: for Change in Turbidity at active agent (ppm) five days post treatment: 5 ppm: 5 ppm active ingredient; for Change in Turbidity at active agent (ppm) five days post treatment: 5 ppm / Change in Turbidity at active agent (ppm) five days post treatment: 10 ppm: initial absorbance 0.10; for Change in Turbidity at active agent (ppm) five days post treatment: 10 ppm: 10 ppm active ingredient; for water turbidity: indicating killing of the mustard algae
mustard algae [6] = assay: Preventative laboratory study on algae, visual growth score
[7] = agricultural fungicides, Table B

Row | Compound | Solubility [1, 7] [mg/L] | Margin of Exposure vs NOEL [2] | Margin of Exposure vs. RfD [3] | Change in Turbidity at active agent (ppm) five days post treatment: 5 ppm (mustard algae [5]; Table 2) | Change in Turbidity at active agent (ppm) five days post treatment: 10 ppm (mustard algae [5]; Table 2) | comments (Remedial Algae Control) (mustard algae [5]; Table 2) | other results
1 | COCC(=O)N(c1c(C)cccc1C)C(C)C(=O)OC (racemic) [Metalaxyl, N-(2,6-dimethylphenyl)-N-(methoxyacetyl)-DL-alaninemethyl ester] | 8400 (≈ 30100 µM) | 98 | 1 | – | – | – | –
2 | CO/C=C(/C(=O)OC)c1ccccc1Oc1cc(Oc2ccccc2C#N)ncn1 [Azoxystrobin, Methyl (E)-2-2-6-(2-cyanophenoxy)pyrimidin-4-yloxyphenyl-3-methoxyacrylate] | 10 (≈ 24.8 µM) | 240 | 2.4 | – | – | – | –
3 | CC(C)N1C(=O)c2ccccc2NS1(=O)=O [Bentazon, 3-isopropyl-1H-2,1,3-benzothiadiazin-4(3H)-one 2,2-dioxide] | – | – | – | – | – | – | Solubility ([1]; herbicides, Table A): 2300 mg/1; Margin of Exposure vs NOEL (Target > 100) [2]: 41; Margin of Exposure vs. RfD (Target > 1) [4]: 0.4
4 | CC1=C(C(=O)Nc2ccccc2)SCCO1 [Carboxin, 5,6-dihydro-2-methyl-N-phenyl-1,4-oxathiin-3-carboxamide] | – | 116 | 1.2 | 0.01 | −0.01 | algicidal activity | water turbidity (mustard algae [5]; Table 2): decreased significantly
5 | Nc1cnn(-c2ccccc2)c(=O)c1Cl [Chloridazon, 5-amino-4-chloro-2-phenyl-3(2H)-pyridazinone] | – | – | – | +0.15 | +0.05 | Algistatic. More | Solubility ([1]; herbicides, Table A): 340 mg/1
6 | CCSC(=O)N(CC)C1CCCCC1 [Cycloate, S-ethyl cyclohexyl(ethyl)thiocarbamate] | – | 1 | 0.001 | 0.00 | −0.01 | algicidal activity | water turbidity (mustard algae [5]; Table 2): decreased significantly
7 | CC(=O)O.CCCCCCCCCCCCNC(=N)N [Dodine, 1-dodecylguanidine acetate] | – | 17 | 0.02 | −0.03 | −0.04 | algicidal activity | water turbidity (mustard algae [5]; Table 2): decreased significantly
8 | CCCCc1c(C)nc(NCC)[nH]c1=O [Ethirimol, 5-butyl-2-ethylamino-6-methylpyrimidin-4-ol] | 250 (≈ 1190 µM) | – | – | – | – | – | –
9 | N#Cc1c[nH]cc1-c1cccc2c1OC(F)(F)O2 [Fludioxonil, 4-(2,2-difluoro-1,3-bezodioxol-4-yl)-1Hpyrrole-3-carbonitrile] | – | 44 | 0.4 | – | – | – | –
10 | COC(=O)c1c(Cl)nn(C)c1S(=O)(=O)NC(=O)Nc1nc(OC)cc(OC)n1 [Halosulfuronmethyl, Methyl 5-{[(4,6-dimethoxy-2-pyrimidinyl)amino]carbonylaminosulfonyl}-3-chloro-1-methyl-1H-pyrazole-4-carboxylate] | – | – | – | – | – | – | Solubility ([1]; herbicides, Table A): 15 mg/1; Margin of Exposure vs NOEL (Target > 100) [2]: 133; Margin of Exposure vs. RfD (Target > 1) [4]: 1.3
11 | C=CCOC(Cn1ccnc1)c1ccc(Cl)cc1Cl (stereo not shown) [Imazalil, 1-[2-(2,4-dichlorophenyl)-2-(2-propenyloxy)ethyl]-1H-imidazole] | 1400 (≈ 4710 µM) | 17 | 0.2 | – | – | – | –
12 | CCCOC(=O)NCCCN(C)C.Cl [Propamocarb, Propyl 3-(dimethylamino)propylcarbamate-hydrochloride] | – | 438 | 1.4 | – | – | – | –
13 | CC(C)(C)C(O)(CCc1ccc(Cl)cc1)Cn1cncn1 (stereo not drawn) [Tebuconazole, H-1,2,4-triazole-1-ethanol-alpha-[2-(4-chlorophenyl)-ethyl]-alpha-(1,1-dimethylethyl)] | – | 13 | 0.4 | – | – | – | Turbidity @ 5 ppm active ingredient (Change in Turbidity at five days post treatment) (mustard algae [5]; 5 ppm, Table 4): +0.09; Turbidity @ 10 ppm active ingredient (Change in Turbidity at five days post treatment) (mustard algae [5]; 10 ppm, Table 4): +0.24; comments (Remedial Algae Control) (mustard algae [5]; Table 4): more effective; Score @ 10 ppm (mustard algae [6]; 10 ppm, visual score 0 to 4, 10 days, Table 3): 2; Score @ 15 ppm active ingredient (mustard algae [6]; 15 ppm, visual score 0 to 4, 10 days, Table 3): 1; Comments (Preventive Algae Control) (mustard algae [6]; Table 3, at 15 ppm): very little growth
14 | Cc1[nH]c(=O)n(C(C)(C)C)c(=O)c1Cl [Terbacil, 3-tert-Butyl-5-chloro-6-methyluracil] | – | – | – | −0.02 | −0.02 | algicidal activity | water turbidity (mustard algae [5]; Table 2): decreased significantly; Margin of Exposure vs NOEL (Target > 100) [2]: 16; Margin of Exposure vs. RfD (Target > 1) [4]: 0.17; Score @ ppm active agent: 0 (mustard algae [6]; 0 ppm, visual score 0 to 4, 10 days, 27° C.): 0; Score @ ppm active agent: 10 (mustard algae [6]; 10 ppm, visual score 0 to 4, 10 days, 27° C.): 0; Score @ ppm active agent: 15 (mustard algae [6]; 15 ppm, visual score 0 to 4, 10 days, 27° C.): 0
15 | CC(C)(C)C(=O)C(Oc1ccc(Cl)cc1)n1cncn1 (stereo not shown) [Triademefon, 1-(4-chlorophenoxy)-3,3-dimethyl-1-(1H-1,2,4-triazol-1-yl)-2-butanone] | 260 (≈ 885 µM) | 104 | 0.4 | – | – | – | –
16 | CC(C)(C)C(O)C(Oc1ccc(Cl)cc1)n1cncn1 (stereo not drawn) [Triademenol, Beta-(4-chlorophenoxy)-alpha-(1,1-dimethylethyl)-1-1H-1,2,4-triazole-1-ethanol] | 260 (≈ 879 µM) | 50 | 0.5 | – | – | – | –
17 | COC(=O)c1cccc(C)c1S(=O)(=O)NC(=O)Nc1nc(OCC(F)(F)F)nc(N(C)C)n1 [Triflusulfuronmethyl] | – | – | – | +0.04 | +0.03 | Algistatic. | Solubility ([1]; herbicides, Table A): 110-11000 mg/1; Margin of Exposure vs NOEL (Target > 100) [2]: 33
